Experimental data reported in PubChem BioAssay AID624491 (Broad Institute, 2012).
Calls of active or inactive are those of the source.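 The calls were made as follows: active = fitted curve crossing a set activation limit at or below the highest valid dose tested; inconclusive = flat fit at 30 to 70% activation, or poor fit; inactive = the rest, including signal decreases.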

The compounds below were run on D54 ERlucT glycosylation luciferase reporter, luminescence, 24 h (assay: blockers of NLG process in reporter cells – D54 ERlucT cells, luminescence, cherry-picks, dose response (AID 624491);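 also: signal gain reflects blocked N-linked glycosylation of a luciferase reporter; actives raise luciferase signal so AC26 marks activators of the reporter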).
For `Cc1ccc2cc(CN(CCCN(C)C)C(=O)NCc3ccccc3)c(=O)[nH]c2c1C`, the AC26 was 69.1 nM. With `CCN(CC)CCCNC(=O)CSc1c2c(nc3cc(Cl)ccc13)CCCC2` the AC26 was 11400 nM. With `COc1cc(/C=N/n2cnc3scc(-c4cccs4)c3c2=O)cc(OC)c1OC` the AC26 was 701 nM. With `COc1ccc2nc3n(c(=O)c2c1)-c1cc2ccccc2cc1C(=O)NC3Cc1ccccc1` (centres undefined) the AC26 was > 19500 nM (inactive). In the case of `Cc1noc2ncnc(Sc3ccccc3Cl)c12`, the AC26 is reported as 12500 nM. Work on `Cn1c(-c2ccccc2)c(/C=N/NC(=O)c2ccc(O)cc2)c2ccccc21` yielded an AC26 of 647 nM. Compound `Cc1nnc2c3ccccc3c(-c3cccs3)nn12` has an AC26 of 3170 nM. In the case of `c1ccc2cc3c(NCCN4CCOCC4)ccnc3cc2c1`, the AC26 is reported as 515 nM. `CN(/N=C/c1ccc(N(C)C)cc1)C1=NS(=O)(=O)c2ccccc21` showed an AC26 of 1610 nM. Work on `O=C(N/N=C/c1ccco1)c1cc(-c2ccncc2)nc2ccccc12` yielded an AC26 of 285 nM. Work on `Cc1cc(C)nc(/N=C(\N)Nc2ccc(OCc3ccccc3)cc2)n1` yielded an AC26 of 8.88 nM. `CN(C)/N=C/c1ccc(Sc2ccc([N+](=O)[O-])cc2[N+](=O)[O-])o1` was tested, and the AC26 was 1880 nM. With `COCCCNc1nnc(Cc2ccc(Cl)cc2)c(=O)[nH]1` the AC26 was 1050 nM. Work on `COc1ccc(CCNc2c3ccccc3nc3ccccc23)cc1OC` yielded an AC26 of 1040 nM. Work on `O=C(NCCC1=CCCCC1)C1CCC(CNc2nc(=S)[nH]c3ccccc23)CC1` (centres undefined) yielded an AC26 of 3920 nM. `COc1cc(C(=O)N/N=C/c2cc([N+](=O)[O-])cs2)cc(OC)c1OC` was tested, and the AC26 was 349 nM. For `Cc1nc2c3cc(Cl)ccc3n(CCN3CCCCC3)c2s1`, the AC26 was 896 nM. `Cc1ccc(-n2nc(C)c(/C=N/NC(=O)c3cccs3)c2Cl)cc1` was tested, and the AC26 was 4230 nM. Compound `Cc1ccc(Nc2nc(-c3sc(C)nc3C)cs2)cc1` has an AC26 of 481 nM. In the case of `COc1ccc(C2(CNC(=O)c3cc(OC)c(OC)c(OC)c3)CCCC2)cc1OC`, the AC26 is reported as 3140 nM. In the case of `COc1ccc(/C=C2\CC/C(=C\c3ccc(OC)c(OC)c3)C2=O)cc1OC`, the AC26 is reported as 3790 nM. Compound `O=C(CNc1cccc2ccccc12)N/N=C/C(Br)=C/c1ccccc1` has an AC26 of 17100 nM. `Cc1cc(C)n(-c2nnc3n2N=C(c2c[nH]c4ccccc24)CS3)n1` showed an AC26 of 3510 nM. Work on `O=C1CC(c2ccccc2F)c2cc3c(cc2N1)CCC3` (centres undefined) yielded an AC26 of 938 nM. `COc1cc(CN2CCc3ccccc3C2)ccc1O` was tested, and the AC26 was 696 nM. For `COCCNC(=S)N1CCc2cc(OC)c(OC)cc2C1c1cccs1` (centres undefined), the AC26 was 455 nM. In the case of `Cn1cccc1/C=C1\C(=O)NC(=O)N(Cc2ccccc2Cl)C1=O`, the AC26 is reported as 2490 nM. In the case of `C[C@H](O)[C@@H]1CN2CCc3c([nH]c4ccccc34)[C@@H]2C[C@@H]1N(C)C(=O)c1ccco1`, the AC26 is reported as 408 nM. With `COc1ccc(NC(=O)c2nc(C)c(C3(C)CC(c4ccccc4)=NO3)s2)cc1` (centres undefined) the AC26 was 4020 nM. `CCC(=NCCc1c(C)[nH]c2ccc(OC(F)(F)F)cc12)C1=C(O)CC(c2ccccc2)CC1=O` (centres undefined) gave an AC26 of 817 nM. `Cc1c(-c2cccc(Cl)c2)nc2ccccc2c1C(=O)OC/C(O)=C(\C#N)c1nc2ccccc2[nH]1` showed an AC26 of 5750 nM. `CCOC(=O)N1CCN(c2c(NCc3ccc(F)cc3)c(=O)c2=O)CC1` gave an AC26 of 8400 nM. For `O=C(c1ccc(CS(=O)c2ccccc2Cl)o1)N1CCN(c2ccccn2)CC1` (centres undefined), the AC26 was 5990 nM. In the case of `Cc1ccc(C(=O)N2C(CC(=O)Nc3ccc(Cl)cc3)C(=O)NC3CCCCC32)cc1` (centres undefined), the AC26 is reported as 12600 nM. In the case of `CCN1C(=O)Nc2cccc3cccc1c23`, the AC26 is reported as 3360 nM. With `CCN(CC)S(=O)(=O)c1ccc(-c2nnc(SCC(=O)N3CCc4ccccc43)o2)cc1` the AC26 was 1460 nM. `CN(CCCNC(=O)CCCOc1cc(=O)n(C)c2ccccc12)Cc1ccccc1` gave an AC26 of 5230 nM. `COc1ccccc1-n1cnc2cc(NCc3cccs3)ccc21` showed an AC26 of 141 nM. For `Cc1ccc2c(c1)c1ccc3c(c1n2C)C(=O)C=CC3=O`, the AC26 was 948 nM. `Cc1ccc(-c2nc(N(C)C3CCN(C)CC3)c3ccccc3n2)cc1` was tested, and the AC26 was 4000 nM. In the case of `Cc1cccc(N2CCN(C(=O)c3ccncc3)CC2)c1C`, the AC26 is reported as 11400 nM. With `CCOc1cc(C(=O)Nc2ccc(N3CCOCC3)cc2)cc(Br)c1OC` the AC26 was 2770 nM. `COc1cc(F)ccc1-c1csc(C(NC(C)=O)c2cccc(F)c2)n1` (centres undefined) was tested, and the AC26 was 206 nM. `Cc1ccc(-c2nc(C(=O)NCCCN(C)C)cc3c2[nH]c2ccccc23)cc1` showed an AC26 of 4300 nM. Compound `CC12CC[C@H]3[C@@H](CCC4(O)C[C@H](O)CCC34/C=N/NC(=O)c3ccccc3O)C1(O)CCC2C1=CC(=O)OC1` (some centres undefined) has an AC26 of 6060 nM. `CCCCCC(O)C=CC1C(O)CC(O)C1CC=CCCCC(=O)O` (centres undefined) gave an AC26 of 7.83 nM. For `Cc1ccc(C(=O)N/C(=C\c2ccco2)C(=O)NCCc2c[nH]c3ccccc23)cc1`, the AC26 was 2310 nM. Work on `C=CCOc1ccccc1C(=O)/C=C1/C(=O)Nc2ccccc21` yielded an AC26 of 3000 nM. Compound `CC[C@H](C)C(=O)O[C@H]1CCC=C2C=C[C@H](C)[C@H](CC[C@@H]3C[C@@H](O)CC(=O)O3)[C@H]21` has an AC26 of 180 nM. With `Cc1ccc2nc(Cl)c(/C=C/C(=O)c3ccco3)cc2c1` the AC26 was 7890 nM. `COc1ccc(C2=NOC(C(=O)NCc3ccc(F)cc3)C2)cc1OC` (centres undefined) gave an AC26 of 4460 nM. `Cc1ccc(/C=N/NC(=O)c2sccc2OCc2ccc(F)cc2)cc1` was tested, and the AC26 was 2440 nM. Compound `COc1cc(Nc2nc3c(N)cc(C(F)(F)F)cc3nc2-c2ccccc2)cc(OC)c1OC` has an AC26 of 868 nM. Work on `Nc1nc(=S)c2ncn([C@@H]3O[C@H](CO)[C@@H](O)[C@H]3O)c2[nH]1` yielded an AC26 of 368 nM. `CC(C)C(=O)Nc1ccc(C(=O)N/N=C/c2cc(Br)cc(Br)c2O)cc1` was tested, and the AC26 was 9890 nM. Work on `COc1ccc(C2=NOC(C(=O)NCc3ccco3)C2)cc1` (centres undefined) yielded an AC26 of 2400 nM. Work on `Cc1c2cnccc2c(C)c2c1oc1ccccc12` yielded an AC26 of 2820 nM. `O=C(Nc1ccc2oc(-c3cccnc3)nc2c1)c1ccc([N+](=O)[O-])o1` gave an AC26 of 1130 nM. With `O=C(O)c1ccc(N/N=C/c2ccc(-c3ccc(Cl)cc3Cl)o2)cc1` the AC26 was 5330 nM. Work on `Cn1cccc1/C=C1\SC(=Nc2cccc(O)c2)NC1=O` yielded an AC26 of 2850 nM. In the case of `CCN(CC)CCNC(=O)c1cc2c(-c3ccc(Cl)cc3)nn(C)c2s1`, the AC26 is reported as 3330 nM. `Cc1cccc2c1NC(=O)/C2=C\C(=O)c1cccs1` was tested, and the AC26 was 4260 nM. `O=C(NCCc1ccccc1)C1c2ccccc2C(=O)N1Cc1cccs1` (centres undefined) showed an AC26 of 2690 nM. `COc1cc(COCC(O)CN2CCN(CCN3C(=O)c4cccc5cccc(c45)C3=O)CC2)cc(OC)c1OC` (centres undefined) showed an AC26 of 1230 nM. Compound `COc1ccccc1NS(=O)(=O)c1ccc(-c2cc(C)no2)s1` has an AC26 of 5830 nM. Work on `COc1cc(C(=O)NC2CCN(C)CC2)ccc1Nc1ncc2c(n1)N(CCc1ccccc1)CCC(=O)N2C` yielded an AC26 of 396 nM. Compound `O=C1[C@H]2[C@@H](c3ccc(F)cc3)N3C(=O)N(c4cccc(Cl)c4)C(=O)[C@@]3(Cc3ccccc3)[C@H]2C(=O)N1C1CCCCC1` has an AC26 of 16.4 nM. Work on `CCN(CC)CCNC(=O)c1cc2c(=O)n(C)c3ccccc3c2s1` yielded an AC26 of 3940 nM. Work on `COc1cc(OC)cc(C(=O)N/N=C/c2ccc(OC)c(COc3ccc(F)cc3)c2)c1` yielded an AC26 of 2250 nM. Compound `Cc1ccc(C(=O)/C=C/c2ccc(Br)cc2)o1` has an AC26 of 16600 nM. With `Cc1ccc2c(CC(=O)NCc3ccco3)coc2c1C` the AC26 was 7380 nM. For `CC(=O)Nc1cccc(-c2ccnc3c2CC(C(=O)Nc2ccc4c(c2)OCO4)O3)c1` (centres undefined), the AC26 was 4550 nM. `c1cc2c3c(cccc3c1)C(N1CCCCC1)=N2` gave an AC26 of 13700 nM. For `O=C(N/N=C/c1cccnc1)c1cc(-c2ccccc2OCc2ccccc2)n[nH]1`, the AC26 was 1890 nM. `C=CCNc1nc2cc(-c3ccccc3C)sc2c(=O)n1C` was tested, and the AC26 was 2810 nM. `COc1cc(OC)cc(C(=O)N2CC(=O)Nc3ccccc32)c1` was tested, and the AC26 was 565 nM. `COc1ccc(Nc2cc(C)nc(-n3nc(C)cc3C)n2)cc1` was tested, and the AC26 was 193 nM. Work on `CNc1ncnc(Sc2ccc(Cl)cc2)c1[N+](=O)[O-]` yielded an AC26 of 4540 nM. Compound `CCOC(=O)c1c(C)c(C(=O)Nc2cc(F)ccc2F)c(C)n1C` has an AC26 of 12600 nM.
